From patent publication US4942155A, “Biosynthetic anthracyclines related to daunorubicin” (Farmitalia Carlo Erba S.p.A., priority 1986, dated 1990)
Converted amounts (≈) assume the structure as drawn.

Assays:
[1] = system: Escherichia coli 026B6; assay: In vitro MIC, standard tube dilution; format: cell-based
Description: (§1) The in vitro minimum inhibitory concentration (MIC) of FCE 24366, FCE 24367 and daunorubicin, determined for some microorganism using the standard tube dilution procedure, are reported in Table 4.

[2] = system: Escherichia coli ATCC 11303; assay: In vitro MIC, standard tube dilution; format: cell-based; conditions: ATCC11303
Description: as §1

[3] = system: Klebeiella pneumoniae ATCC 10031; assay: In vitro MIC, standard tube dilution; format: cell-based
Description: as §1

[4] = system: Proteus morganii ATCC 25830; assay: In vitro MIC, standard tube dilution; format: cell-based; conditions: Morganella morganii, ATCC25830
Description: as §1

[5] = system: Sarcina lutea ATCC 9341; assay: In vitro MIC, standard tube dilution; format: cell-based; conditions: Micrococcus luteus, ATCC9341
Description: as §1

[6] = system: Staphylococcus aureus 153; assay: In vitro MIC, standard tube dilution; format: cell-based
Description: as §1

[7] = system: Staphylococcus aureus 209P; assay: In vitro MIC, standard tube dilution; format: cell-based
Description: as §1

[8] = system: Streptococcus faecalis ATCC 8043; assay: In vitro MIC, standard tube dilution; format: cell-based; conditions: Enterococcus faecalis, ATCC8043
Description: as §1

[9] = system: Streptococcus pyogenes ATCC 12384; assay: In vitro MIC, standard tube dilution; format: cell-based; conditions: ATCC12384
Description: as §1

[10] = system: HeLa cells; assay: In vitro cytotoxicity on cultured HeLa cells; format: cell-based; conditions: for IC50: Homo sapiens, exposed for 24 hr then plated, read-out: ID50 (the source's name)
Description: (§2) The cytotoxic activity of the new anthracyclines, FCE 24366 and FCE 24367 have been tested in vitro on cultured HeLa cells, and P388 leukemia cells sensitive (P 388/S) or resistant (P 388/R) to doxorubicin.
^(a) Cells are exposed to the drugs for 24 hr then plated

[11] = system: P388/S leukemia cells; assay: In vitro cytotoxicity on P388 leukemia cells sensitive to doxorubicin; format: cell-based; conditions: for IC50: Mus musculus, exposed for 48 hr then plated, read-out: ID50 (the source's name)
Description: as §2
(§3) ^(b) Cells are exposed to the drugs for 48 hr then plated

[12] = system: P388/R leukemia cells; assay: In vitro cytotoxicity on P388 leukemia cells resistant to doxorubicin; format: cell-based; conditions: for IC50: Mus musculus, exposed for 48 hr then plated, read-out: ID50 (the source's name); for activity on P 388/R cell line: cross-resistant to most anthracyclines
Description: as §2, §3

[13] = system: P388 ascitic leukemia; assay: In vivo activity against P388 ascitic leukemia in mice; conditions: for Toxic deaths: macroscopic autopic findings; for MST (T/C %): median survival time, % of untreated controls; for in vivo activity compared with daunorubicin: P388 ascitic leukemia in mice, at dosage levels several times lower
Protocol: ^(a) Mice were treated i.p. on day 1 after tumor cell inoculation.
^(b) Injected as 1:9 Tween 80:water suspension.
(§4) ^(c) Median survival time expressed as percentage of untreated
^(d) Evaluated on the basis of macroscopic autopic findings.

[14] = system: Gross leukemia; assay: In vivo activity against Gross leukemia in mice; conditions: for Toxic deaths: macroscopic autoptic findings; for MST (T/C %): median survival time, % of untreated controls
Protocol: ^(a) Mice were treated i.v. on day 1 after tumor cell i.v.
^(b) Injected as 1:9 Tween 80:water suspension
as §4
^(d) Evaluated on the basis of macroscopic autoptic findings.

[15] = Solubility; format: physicochemical
[16] = Stability in acidic media; format: physicochemical
[17] = acetone, dioxane, N,N-dimethylformamide, N,N-dimethylsulfoxide
[18] = chloroform, dichloromethane, ethyl acetate, lower alcohols
[19] = ethyl ether, n-hexane, petroleum ether and water

Row | SMILES | MIC [1] [µg/mL] | MIC [2] [µg/mL] | MIC [3] [µg/mL] | MIC [4] [µg/mL] | MIC [5] [µg/mL] | MIC [6] [µg/mL] | MIC [7] [µg/mL] | MIC [8] [µg/mL] | MIC [9] [µg/mL] | IC50 [10] [ng/mL] | IC50 [11] [ng/mL] | IC50 [12] [µg/mL] | cytotoxic dosage level compared with daunorubicin [10] | cytotoxic dosage level compared with daunorubicin [11] | activity on P 388/R cell line [12] | in vivo activity compared with daunorubicin [13] | solubility [15, 17] | solubility [15, 18] | solubility [15, 19] | stability [16] | also measured
1 | COc1cccc2c1C(=O)c1c(O)c3c(c(O)c1C2=O)C[C@@](O)(C(C)=O)C[C@@H]3O[C@H]1C[C@H](N)[C@H](O)[C@H](C)O1 [Daunorubicin, daunorubicin] | 6.25 (≈ 11.8 µM) | 3.12 (≈ 5.91 µM) | > 100 | > 100 | 1.56 (≈ 2.96 µM) | 25 (≈ 47.4 µM) | 6.25 (≈ 11.8 µM) | > 100 | 3.12 (≈ 5.91 µM) | 19 (≈ 0.036 µM) | 9.5 (≈ 0.018 µM) | 0.75 (≈ 1.42 µM) |  |  |  |  |  |  |  |  | Toxic deaths ([13]; 2.9 mg/Kg i.p. on day 1): 0/10; MST (T/C %) ([13]; 2.9 mg/Kg i.p. on day 1): 160%; Toxic deaths ([13]; 4.4 mg/Kg i.p. on day 1): 7/10; MST (T/C %) ([13]; 4.4 mg/Kg i.p. on day 1): 150%; Toxic deaths ([14]; 10 mg/Kg i.v. on day 1): 0/9; MST (T/C %) ([14]; 10 mg/Kg i.v. on day 1): 183%; Toxic deaths ([14]; 15 mg/Kg i.v. on day 1): 0/9; MST (T/C %) ([14]; 15 mg/Kg i.v. on day 1): 217%; Toxic deaths ([14]; 22.5 mg/Kg i.v. on day 1): 9/9; MST (T/C %) ([14]; 22.5 mg/Kg i.v. on day 1): 83%
2 | COc1cccc2c1C(=O)c1c(O)c3c(c(O)c1C2=O)C[C@@](O)(C(C)=O)C[C@@H]3O[C@H]1C[C@@H]2NC(C3C(=O)N(C)C(=O)N(C)C3=O)C(C)OC(CC(C)O)O[C@@H]2[C@H](C)O1 (some centres unmarked) [FCE 24366] | 1.56 (≈ 1.93 µM) | 0.39 (≈ 0.482 µM) | 0.78 (≈ 0.963 µM) | 12.5 (≈ 15.4 µM) | 0.19 (≈ 0.235 µM) | 0.78 (≈ 0.963 µM) | 0.78 (≈ 0.963 µM) | 12.5 (≈ 15.4 µM) | 3.12 (≈ 3.85 µM) | 0.09 (≈ 0.000111 µM) | 0.036 (≈ 4.45e-05 µM) | 0.0012 (≈ 0.00148 µM) | several times lower than those of daunorubicin | several times lower than those of daunorubicin | high activity | as active as daunorubicin | soluble | slightly soluble | barely soluble or insoluble | unstable | Toxic deaths ([13]; 0.012 mg/Kg i.p. on day 1): 0/10; MST (T/C %) ([13]; 0.012 mg/Kg i.p. on day 1): 130%; Toxic deaths ([13]; 0.025 mg/Kg i.p. on day 1): 0/10; MST (T/C %) ([13]; 0.025 mg/Kg i.p. on day 1): 135%; Toxic deaths ([13]; 0.05 mg/Kg i.p. on day 1): 0/10; MST (T/C %) ([13]; 0.05 mg/Kg i.p. on day 1): 150%; Toxic deaths ([13]; 0.1 mg/Kg i.p. on day 1): 1/10; MST (T/C %) ([13]; 0.1 mg/Kg i.p. on day 1): 165%; Toxic deaths ([14]; 0.13 mg/Kg i.v. on day 1): 0/9; MST (T/C %) ([14]; 0.13 mg/Kg i.v. on day 1): 117%; Toxic deaths ([14]; 0.20 mg/Kg i.v. on day 1): 0/8; MST (T/C %) ([14]; 0.20 mg/Kg i.v. on day 1): 192%; Toxic deaths ([14]; 0.30 mg/Kg i.v. on day 1): 2/9; MST (T/C %) ([14]; 0.30 mg/Kg i.v. on day 1): 150%; activity against Gross leukemia compared with daunorubicin ([14]; Gross leukemia in mice): activity comparable with that of daunorubicin at remarkably lower dosages
3 | COc1cccc2c1C(=O)c1c(O)c3c(c(O)c1C2=O)C[C@@](O)(C(C)=O)C[C@@H]3O[C@H]1C[C@@H]2NC(C3C(=O)NC(=S)NC3=O)C(C)OC(CC(C)O)O[C@@H]2[C@H](C)O1 (some centres unmarked) [FCE 24367] | 12.5 (≈ 15.7 µM) | 3.12 (≈ 3.91 µM) | 25 (≈ 31.3 µM) | 100 (≈ 125 µM) | 0.78 (≈ 0.978 µM) | 6.25 (≈ 7.83 µM) | 6.25 (≈ 7.83 µM) | 100 (≈ 125 µM) | 6.25 (≈ 7.83 µM) | 0.7 (≈ 0.000877 µM) | 0.003 (≈ 3.76e-06 µM) | 0.0038 (≈ 0.00476 µM) | several times lower than those of daunorubicin | several times lower than those of daunorubicin | high activity | as active as daunorubicin | soluble | slightly soluble | barely soluble or insoluble | unstable | Toxic deaths ([13]; 0.3 mg/Kg i.p. on day 1): 0/10; MST (T/C %) ([13]; 0.3 mg/Kg i.p. on day 1): 145%; Toxic deaths ([13]; 0.45 mg/Kg i.p. on day 1): 1/10; MST (T/C %) ([13]; 0.45 mg/Kg i.p. on day 1): 150%; Toxic deaths ([13]; 0.68 mg/Kg i.p. on day 1): 1/10; MST (T/C %) ([13]; 0.68 mg/Kg i.p. on day 1): 155%
